Test results as given in patent US9782368B2, “Use of N,N-bis-2-mercaptoethyl isophthalamide” (EMERAMED LIMITED, priority 2014, dated 2017).

Test system: IL-6 and IL-8 secretion in A549 cells
Assay: Particle-induced secretion of pro-inflammatory cytokines (ELISA) in A549 cells
Format: cell-based
Conditions: A549 cells
Experimental: Secretion of the pro-inflammatory cytokines interleukin (IL)-6, IL-8 (as well as GM-CSF and MCP-1) into cell media in response to particle exposure was measured in A549 and BEAS-2B cells using the following method.
Lung epithelial cells were seeded at 5×10^4 in 24-well plates. After pre-incubation with NBMI, the anti-oxidant compound, N-acetyl-L-cysteine (NAC), which was used as a positive control, or vehicle, for 3 hours the medium was removed.
Fresh media containing various particles (as below) in different concentrations was in a total volume of 0.5 ml for an additional 24 hours. The supernatants were then separated from the cells by centrifugation.
IL-8, IL-6, GM-CSF and MCP-1 were measured in the cell free fluid using the DuoSet ELISA Development kit (R&D Systems, Abingdon, UK) according to manufacturer's protocol.
Exposure to medium only served as negative control. Each experiment was performed twice with 4 replicates.
The effect of pre-incubation with 50 μM NBMI on particle-induced cytokine formation was tested at various concentrations of relevant particles.

[1] = TiO2 P25 75 μg/cm^2, pre-incubation 50 μM NBMI
[2] = Urban Dust 100 μg/cm^2, pre-incubation 50 μM NBMI

Compound: O=C(NCCS)c1cccc(C(=O)NCCS)c1 [NBMI, N,N-bis-2-mercaptoethyl isophthalamide]
- reduction of secretion of IL-6 [1]: 38%
- reduction of secretion of IL-8 [1]: 29%
- reduction of secretion of IL-6 [2]: 38%
- reduction of secretion of IL-8 [2]: 30%
